Laboratory results reported in PubChem BioAssay (NCI).
Where “and” joins values, the source holds several entries; their conditions need not be identical. Equal entries are not always repeated.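 Five concentrations, 48 hours, 96-well plates. The concentration for 50% growth inhibition is given as GI50. TGI marks complete inhibition of growth.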

Experiments:
Experiment in all cases: NCI anticancer screen, dose series, 48 h
[1] = tested on: NCI-H460 lung
[2] = tested on: SN12C renal
[3] = tested on: SK-OV-3 ovarian
[4] = tested on: SW-620 colon
[5] = tested on: OVCAR-3 ovarian
[6] = tested on: LOX IMVI melanoma
[7] = tested on: UACC-257 melanoma
[8] = tested on: MOLT-4 leukemia
[9] = tested on: IGROV1 ovarian
[10] = tested on: HL-60(TB) leukemia

| SMILES | TGI [1] | TGI [2] | TGI [3] | TGI [4] | TGI [5] | TGI [6] | TGI [7] | TGI [8] | TGI [9] | TGI [10] | GI50 [10] | GI50 [1] [nM] | GI50 [2] [µM] | GI50 [3] [µM] | GI50 [4] [µM] | GI50 [5] [µM] | GI50 [6] [µM] | GI50 [7] [µM] | GI50 [9] [µM] | GI50 [8] [µM] |
| --- | --- | --- | --- | --- | --- | --- | --- | --- | --- | --- | --- | --- | --- | --- | --- | --- | --- | --- | --- | --- |
| c1ccc(/C(=N\Nc2nc3ccccc3[nH]2)c2ccccn2)cc1 | 13.1 µM | > 21.1 µM | 2.02 µM | > 69.4 µM | 2.99 µM | 7.44 µM | 4.63 µM | 51.9 µM | 1.31 µM | – | – | – | – | – | – | – | – | – | – | – |
| COC(=O)c1c(O)ccc2c1c1c(n2CCc2ccc(OC)c(OC)c2)C(=O)c2ccccc2C1=O | 19.5 µM | 50.9 µM | 38.6 µM | – | 40.6 µM | – | 35.8 µM | 65.8 µM | 29.9 µM | 59 µM | – | – | – | – | – | – | – | – | – | – |
| O=C1Nc2cccc(Cl)c2/C1=C\c1cccnc1 | 36.5 µM | 20.5 µM | 15.3 µM | 37.7 µM | 21.2 µM | > 100 µM | 16.8 µM | 10.2 µM | – | > 100 µM | – | – | – | – | – | – | – | – | – | – |
| N#CC1(CCCI)CCCC1 | 25.9 µM | 26.3 µM | > 100 µM | > 100 µM | 31.1 µM | 22.9 µM | > 100 µM | > 100 µM | > 100 µM | 58.9 µM | – | – | – | – | – | – | – | – | – | – |
| N#Cc1c(-c2ccc([N+](=O)[O-])cc2)c2c([nH]c1=O)-c1ccccc1CCC2 | > 100 µM | > 100 µM | > 100 µM | > 100 µM | > 100 µM | > 100 µM | > 100 µM | > 100 µM | > 100 µM | > 100 µM | – | – | – | – | – | – | – | – | – | – |
| CC[C@@]1(O)CC(OC2CC(N3CCOCC3)C(O)C(C)O2)c2c(O)c3c(c(O)c2[C@H]1O)C(=O)c1cccc(O)c1C3=O (stereo partly specified) | 0.554 µM and 0.113 µM | 2.17 µM and 9.19 µM | 1.07 µM and 1.67 µM | 5.93 µM and 9.38 µM | 2.73 µM and 1.63 µM | 0.886 µM and 0.437 µM | 1.34 µM and 0.69 µM | 0.369 µM and 0.128 µM | 2.9 µM and 5.99 µM | 0.431 µM and 0.36 µM | 0.000481 µM and < 0.0113 µM | 0.052 | 0.0465 | 0.0963 | 0.121 | 0.176 | 0.0207 | 0.108 | 0.235 | – |
| CC(C)CCN(CCC(C)C)CC(=O)Nc1ccc(S(=O)(=O)c2ccc(NC(=O)CN(CCC(C)C)CCC(C)C)cc2)cc1 | 6.1 µM | 25.2 µM | 88 µM | 3.74 µM | 3.03 µM | – | 13.6 µM | 7.44 µM | 4.5 µM | 5.79 µM | 2.22 µM | 2070 | 3.1 | 28 | 1.55 | 1.41 | – | 3.01 | 1.64 | 2.28 |
| O=C1OC(c2ccc(O)cc2)(c2ccc(O)cc2)c2ccc(Cl)c3cccc1c23 (tested in a mixture with another compound) | 23.7 µM | 27.7 µM | > 75 µM | 33.4 µM | > 75 µM | 20.8 µM | 70.1 µM | – | 33.2 µM | – | – | – | – | – | – | – | – | – | – | – |
| C[n+]1c2ccccc2c(N=[N+]=[N-])c2ccccc21 | > 10 µM | > 10 µM | > 10 µM | > 10 µM | > 10 µM | 7.63 µM | > 10 µM | > 10 µM | > 10 µM | > 10 µM | – | – | – | – | – | – | – | – | – | – |
